Source: patent US20050256161A1, “Melanin concentrating hormone receptor antagonists” (priority 2003, published 2005)

How the values were obtained:
rat MCH1 receptor = biological target: T1, rat MCH1 receptor (Rattus norvegicus, UniProt P97639); assay: rMCH FLIPR calcium mobilization functional assay; type: cell-based; conditions: CHOK1-Gqi cells, threshold 100 μM or less
T1 construct: expressed in transfected cells
Procedure: Pharmacological analyses were conducted using either a HT-PS100 device (Axiom Biotechnologies, San Diego, Calif.), which provides high-resolution dose-response fluorometric measurements of [Ca^++]i mobilization, or using a FLIPR® device (Molecular Devices, Sunnyvale, Calif.).
Materials: Pharmacological analysis was conducted using a FLIPR® device (Molecular Devices, Sunnyvale, Calif.). CHOK1-Gqi cells were stably transfected with the rat MCH1 receptor and maintained under G418 antibiotic pressure. FLIPR® assay buffer consisted of phenol red-free DMEM+2.5 mM probenecid. MCH peptide (Amgen, Inc.) was reconstituted in assay buffer and served as the positive agonist control for all experiments. Test compounds were prepared as 10 mM stocks in 100% DMSO and diluted to a top end working concentration of 10 μM in 96 well black, flat bottom, collagen-I coated plates (Becton Dickinson, Bedford, Mass.).
Methods: CHOK1-Gqi cells stably expressing MCH1R were maintained in Dulbeco's modified Eagle's medium (GIBCO/Life Technologies, Rockville, Md.) supplemented with 2 mM glutamine and 10% dialyzed fetal bovine serum (HyClone, Logan, Utah) at 37° C., 5% CO2. Cells were harvested by 10′ treatment with Versene (GIBCO/Life Technologies) followed by trituration, washing twice with cold (4° C.) hybridoma medium (Serum/Protein free, with L-glutamine, sodium bicarbonate, MOPS buffer) (Sigma-Aldrich Corp, St. Louis, Mo.) and replated onto 96 well black, flat bottom, collagen-I coated plates to a density of 10,000 cells/well. The cells were then loaded with the fluorescent calcium indicator Fura-2 (Molecular Probes, Eugene, Oreg.) at 1.6 μM for 60′ at room temperature. The loaded cells were then washed twice with 90 μl/well of wash buffer (1×HBSS, 20 mM HEPES, 2.5 mM probenecid).
Receptor-stimulated intracellular calcium responses were detected using FLIPR® by monitoring increases in the Fura-2 fluorescence response.
Test compounds were screened for MCH1R activity in the FLIPR® for both agonist and antagonist action. Agonist mode challenges were conducted at a maximum gradient concentration of 1 μM. Antagonist activity was tested by 10 min pre-incubation of cells at a compound concentration of defined to be 300× the EC50 of MCH (typically 1 μM), with subsequent introduction of MCH at a concentration 5-fold of EC50 as determined in preliminary experiments.
Schild experiments were conducted on the FLIPR® for selected compounds by co-administering antagonist compounds together with MCH peptide. Several fixed concentrations of antagonist compounds were prepared in 10-fold increments, and presented to the cells in a gradient of increasing MCH concentration. Values for compound pA2 were calculated by linear regression of MCH EC50s as a function of antagonist concentration.

human MCH receptor = biological target: T2, human MCH receptor (Homo sapiens, UniProt Q99705); assay: hMCH FLIPR calcium mobilization functional assay; type: cell-based; conditions: threshold 100 μM or less
T2 construct: expressed in transfected cells
T2 sequence (Q99705 whole entry): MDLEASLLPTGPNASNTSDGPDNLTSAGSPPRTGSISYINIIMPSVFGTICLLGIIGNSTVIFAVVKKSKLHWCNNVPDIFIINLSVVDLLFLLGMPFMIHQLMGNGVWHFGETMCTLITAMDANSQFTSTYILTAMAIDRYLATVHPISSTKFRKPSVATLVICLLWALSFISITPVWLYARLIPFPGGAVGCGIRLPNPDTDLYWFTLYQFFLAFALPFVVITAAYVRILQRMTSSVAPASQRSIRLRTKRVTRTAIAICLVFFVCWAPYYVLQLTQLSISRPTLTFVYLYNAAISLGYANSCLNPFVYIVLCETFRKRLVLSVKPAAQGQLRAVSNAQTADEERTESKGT

[1] = biological target: T3, rat MCH 1 receptor (rMCH1R) (Rattus norvegicus, UniProt P97639); assay: Ligand binding assay (125I native-MCH), rMCH; conditions: rMCH1R expressed in HEK 293, membranes, 0.2 nM 125I native-MCH
T3 construct: expressed in transfected cells; host or cells: HEK 293 (membrane preparation)
T3 sequence (P97639 whole entry): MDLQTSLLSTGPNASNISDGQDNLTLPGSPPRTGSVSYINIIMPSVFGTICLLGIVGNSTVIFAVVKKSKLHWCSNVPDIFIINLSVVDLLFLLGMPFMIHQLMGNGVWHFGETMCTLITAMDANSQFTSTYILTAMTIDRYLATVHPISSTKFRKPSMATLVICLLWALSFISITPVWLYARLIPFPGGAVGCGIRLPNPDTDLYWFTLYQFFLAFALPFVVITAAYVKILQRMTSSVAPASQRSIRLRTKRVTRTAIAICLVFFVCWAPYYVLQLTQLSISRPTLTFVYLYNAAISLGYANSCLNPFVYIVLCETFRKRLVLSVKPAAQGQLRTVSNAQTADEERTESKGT
Procedure: (§1) Human embryonic kidney cells (293 total) expressing either human, rat, or mouse MCH receptor were harvested from 150 mm culture dishes using PBS. Spinning at 1500 rpm for 2 minutes initially pelleted cells. The resulting pellet was then homogenized in 15 mL ice cold sucrose buffer (25 mM HEPES, 0.3 M sucrose, pH 7.4) with a motorized, glass fitted, Teflon® homogenizer. The homogenate was centrifuged at 48,000×g at 4° C. for 10 minutes, resuspended in 15 mL assay buffer (25 mM HEPES, 10 mM MgCl2, 0.2% BSA, 0.1 mg/mL STI, 0.1 mg/mL Pefabloc®, 1 μM Phosphoramidon, pH 7.4) with a Tissue-Tearor® (Biospec Products) and centrifuged again at 48,000×g for 10 minutes. The pellet was homogenized for a third time in 15 mL assay buffer using the Tissue-Tearor® and again centrifuged at 48,000×g for 10 minutes. The resulting pellet was resuspended in assay buffer at a wet weight concentration of 10-20 mg/mL.
(§2) Binding assays were determined as described below using mouse, rat or human MCH 1 receptors (mMCH1R, rMCH1R, and hMCH1R, respectively) expressed in HEK 293; IC50 values were calculated.
(§3) Binding assays were performed in 96-well U-bottom plates. Membranes (100 μg tissue) were incubated at 30° C. for 90 minutes in assay buffer with various peptides in the presence of 0.2 nM 125I native-MCH (Perkin-Elmer Life Sciences, Boston, Mass.) in 100 μL total volume. Non-specific binding was assessed in the presence of 1 μM cold native-MCH. The reaction was terminated by rapid filtration through Unfilter-96 GF/C glass fiber filter plates (FilterMate® 196 Harvester, Packard Instrument Co., Meriden, Conn.) pre-soaked in PBS/0.5% BSA, followed by three washes with 300 μL ice-cold water. Bound radioactivity was determined using a TopCount® microplate scintillation and luminescence counter (Packard Instrument Co., Meriden, Conn.). Nonlinear regression analyses of drug concentration curves were performed using GraphPad Prism® (GraphPad Software, Inc., San Diego, Calif.).

[2] = biological target: T4, human MCH 1 receptor (hMCH1R) (Homo sapiens, UniProt Q99705); assay: Ligand binding assay (125I native-MCH), hMCH; conditions: hMCH1R expressed in HEK 293, membranes, 0.2 nM 125I native-MCH
T4 construct: expressed in transfected cells; host or cells: HEK 293 (membrane preparation)
T4 sequence (Q99705 whole entry): as the sequence (Q99705 whole entry) above
Procedure: as §1, §2, §3

T1 sequence (P97639 whole entry): as the sequence (P97639 whole entry) above

SMILES | Ki (rat MCH1 receptor) [µM] | Ki (human MCH receptor) [µM] | IC50 ([1]; threshold 100 nM or less) [µM] | IC50 ([1]; threshold 100 μM or less) [µM] | IC50 ([2]; threshold 100 nM or less) [µM] | IC50 ([2]; threshold 100 μM or less) [µM]
Cc1ccc(Oc2ccc(C(=O)NCCN3CCCC3)cc2NC(=O)Nc2cc(Cl)cc(Cl)c2)cc1C [Compound 59, 3-[3-(3,5-dichlorophenyl)ureido]-4-(3,4-dimethylphenoxy)-N-(2-pyrrolidin-1-yl-ethyl)benzamide] | ≤ 100 | ≤ 100 | ≤ 0.1 | ≤ 100 | ≤ 0.1 | ≤ 100
Cc1ccc(Oc2ccc(CNCCN3CCCC3)cc2NC(=O)Nc2cccc(F)c2)cc1C [Compound 64, 1-{2-(3,4-dimethylphenoxy)-5-[(2-pyrrolidin-1-yl-ethylamino)-methyl]phenyl}-3-(3-fluorophenyl)urea] | ≤ 100 | ≤ 100 | – | ≤ 100 | – | ≤ 100
